In US20250129054A1 (Terran Biosciences Inc., priority 2022, published 2025):
Where a name gives a salt, the structure may show the parent alone.

Test: Serial tail vein bleed PK study in SD rats: methylone measured in plasma after IV or oral methylone or oral methylone prodrugs
Assay type: in vivo, Sprague Dawley rats
Settings: 10 mg/kg, rat
Procedure: A pharmacokinetic (PK) study was performed in three male Sprague-Dawley (SD) rats following intravenous (IV) and oral (PO) administration of methylone at 1 mg/kg (IV) and 10 mg/kg (PO) respectively, or test compounds (prodrugs of methylone) at 10 mg/kg (PO). Parent compound (methylone) was measured in plasma.
Samples were sent for method optimization and measurement of parent compound (methylone) via unique calibration lines and following acceptance QC's. Dose formulation concentrations were also measured, and PK parameters were determined (Cmax (ng/mL), Tmax (hr), Cl (ml/min/kg), Vdss (L/kg), t½(hr), AUC0-t (ng/mL*hr), AUC0-inf (ng/mL*hr), MIRT (hr), Bioavailability ([…]) where warranted) using WinNon Lin software. Data (including bioanalytical results and assay performance) were reported in a tabulated format.
Formulation for PO Administration: For PO dosing, the prodrug was formulated in 10% DMSO/20% PEG400/70% water to a concentration of 2 mg free metabolite material/mL. This provided a dose of 10 mg free metabolite/kg when the prodrug was administered PO in 5 mL/kg dosing volumes.
Formulation for IV administration: For IV dosing, rac-methylone was formulated as solution in saline to a concentration of 0.5 mg free metabolite material/mL. This provided a dose of 1 mg free metabolite/kg when administered IV in 2 mL/kg dosing volumes.
The pharmacokinetic properties of the synthesized methylone prodrugs after oral administration in a rat model were assessed. The concentration of methylone was measured in each rat at various sampling timepoints after IV or oral administration of rac-methylone or the synthesized methylone prodrugs to rats.
Dose formulations were made at equivalent concentrations of active compound (methylone) adjusted for molecular weight of the compounds. The synthesized methylone prodrugs or analogs were dosed at 10 mg/kg oral (PO) nominal dose. Nominal doses were used in PK parameter determinations. The parent compound (methylone) was dosed at 1 mg/kg intravenous (IV) and 10 mg/kg (PO).

[1] = 0.500 h after oral dosing of the prodrug, individual animals
[2] = 0.500 h after oral dosing of the prodrug, mean
[3] = 1.00 h after oral dosing of the prodrug, individual animals
[4] = 1.00 h after oral dosing of the prodrug, mean
[5] = 2.00 h after oral dosing of the prodrug, individual animals
[6] = 2.00 h after oral dosing of the prodrug, mean
[7] = 4.00 h after oral dosing of the prodrug, individual animals
[8] = 4.00 h after oral dosing of the prodrug, mean
[9] = 7.00 h after oral dosing of the prodrug, individual animals
[10] = 7.00 h after oral dosing of the prodrug, mean
[11] = 24.0 h after oral dosing of the prodrug, individual animals
[12] = 24.0 h after oral dosing of the prodrug, mean

SMILES | Plasma Concentrations of metabolite methylone [1] | Plasma Concentrations of metabolite methylone [2] | Plasma Concentrations of metabolite methylone [3] | Plasma Concentrations of metabolite methylone [4] | Plasma Concentrations of metabolite methylone [5] | Plasma Concentrations of metabolite methylone [6] | Plasma Concentrations of metabolite methylone [7] | Plasma Concentrations of metabolite methylone [8] | Plasma Concentrations of metabolite methylone [9] | Plasma Concentrations of metabolite methylone [10] | Plasma Concentrations of metabolite methylone [11] | Plasma Concentrations of metabolite methylone [12]
CC(C(=O)c1ccc2c(c1)OCO2)N(C)C(=O)CCCC(=O)OC(C)(C)C (stereo not drawn) [Compound 3C, tert-Butyl 4-{[2-(2H-1,3-benzodioxol-5-yl)-1-methyl-2-oxo-ethyl]-N-methylcarbamoyl}butyrate] | BLQ (Below Lower Limit of Quantification (0.5 ng/mL)) | BLQ (Below Lower Limit of Quantification (0.5 ng/mL)) | BLQ (Below Lower Limit of Quantification (0.5 ng/mL)) | BLQ (Below Lower Limit of Quantification (0.5 ng/mL)) | BLQ (Below Lower Limit of Quantification (0.5 ng/mL)) | BLQ (Below Lower Limit of Quantification (0.5 ng/mL)) | BLQ (Below Lower Limit of Quantification (0.5 ng/mL)) | BLQ (Below Lower Limit of Quantification (0.5 ng/mL)) | BLQ (Below Lower Limit of Quantification (0.5 ng/mL)) | BLQ (Below Lower Limit of Quantification (0.5 ng/mL)) | BLQ (Below Lower Limit of Quantification (0.5 ng/mL)) | BLQ (Below Lower Limit of Quantification (0.5 ng/mL))
CC(C(=O)c1ccc2c(c1)OCO2)N(C)C(=O)[C@H](CCCCNC(=O)OC(C)(C)C)NC(=O)OC(C)(C)C (stereo partly drawn) [Compound 3E, tert-Butyl N-[(5S)-6-[[2-(1,3-benzodioxol-5-yl)-1-methyl-2-oxo-ethyl]-methyl-amino]-5-(tert-butoxycarbonylamino)-6-oxo-hexyl]carbamate] | BLQ (Below Lower Limit of Quantification (0.5 ng/mL)) | BLQ (Below Lower Limit of Quantification (0.5 ng/mL)) | BLQ (Below Lower Limit of Quantification (0.5 ng/mL)) | BLQ (Below Lower Limit of Quantification (0.5 ng/mL)) | BLQ (Below Lower Limit of Quantification (0.5 ng/mL)) | BLQ (Below Lower Limit of Quantification (0.5 ng/mL)) | BLQ (Below Lower Limit of Quantification (0.5 ng/mL)) | BLQ (Below Lower Limit of Quantification (0.5 ng/mL)) | BLQ (Below Lower Limit of Quantification (0.5 ng/mL)) | BLQ (Below Lower Limit of Quantification (0.5 ng/mL)) | BLQ (Below Lower Limit of Quantification (0.5 ng/mL)) | BLQ (Below Lower Limit of Quantification (0.5 ng/mL))
CC1C(c2ccc3c(c2)OCO3)=N[C@@H](CCCCN)C(=O)N1C (stereo partly drawn) [Compound 4A, dihydrochloride] | BLQ (Below Lower Limit of Quantification (0.5 ng/mL)) | BLQ (Below Lower Limit of Quantification (0.5 ng/mL)) | BLQ (Below Lower Limit of Quantification (0.5 ng/mL)) | BLQ (Below Lower Limit of Quantification (0.5 ng/mL)) | BLQ (Below Lower Limit of Quantification (0.5 ng/mL)) | BLQ (Below Lower Limit of Quantification (0.5 ng/mL)) | BLQ (Below Lower Limit of Quantification (0.5 ng/mL)) | BLQ (Below Lower Limit of Quantification (0.5 ng/mL)) | BLQ (Below Lower Limit of Quantification (0.5 ng/mL)) | BLQ (Below Lower Limit of Quantification (0.5 ng/mL)) | BLQ (Below Lower Limit of Quantification (0.5 ng/mL)) | BLQ (Below Lower Limit of Quantification (0.5 ng/mL))
CC(C(=O)c1ccc2c(c1)OCO2)N(C)C(=O)CCCC(=O)O (stereo not drawn) [Compound 8D, 4-{[2-(2H-1,3-Benzodioxol-5-yl)-1-methyl-2-oxo-ethyl]-N-methylcarbamoyl}butyric acid] | BLQ (Below Lower Limit of Quantification (0.5 ng/mL)) | BLQ (Below Lower Limit of Quantification (0.5 ng/mL)) | BLQ (Below Lower Limit of Quantification (0.5 ng/mL)) | BLQ (Below Lower Limit of Quantification (0.5 ng/mL)) | BLQ (Below Lower Limit of Quantification (0.5 ng/mL)) | BLQ (Below Lower Limit of Quantification (0.5 ng/mL)) | BLQ (Below Lower Limit of Quantification (0.5 ng/mL)) | BLQ (Below Lower Limit of Quantification (0.5 ng/mL)) | BLQ (Below Lower Limit of Quantification (0.5 ng/mL)) | BLQ (Below Lower Limit of Quantification (0.5 ng/mL)) | BLQ (Below Lower Limit of Quantification (0.5 ng/mL)) | BLQ (Below Lower Limit of Quantification (0.5 ng/mL))
CC(C(=O)c1ccc2c(c1)OCO2)N(C)C(=O)N1CCC(N2CCCCC2)CC1 (stereo not drawn) [Compound 9A, N-[2-(1,3-Benzodioxol-5-yl)-1-methyl-2-oxo-ethyl]-N-methyl-4-(1-piperidyl)piperidine-1-carboxamide] | BLQ (Below Lower Limit of Quantification (0.5 ng/mL)) | BLQ (Below Lower Limit of Quantification (0.5 ng/mL)) | BLQ (Below Lower Limit of Quantification (0.5 ng/mL)) | BLQ (Below Lower Limit of Quantification (0.5 ng/mL)) | BLQ (Below Lower Limit of Quantification (0.5 ng/mL)) | BLQ (Below Lower Limit of Quantification (0.5 ng/mL)) | BLQ (Below Lower Limit of Quantification (0.5 ng/mL)) | BLQ (Below Lower Limit of Quantification (0.5 ng/mL)) | BLQ (Below Lower Limit of Quantification (0.5 ng/mL)) | BLQ (Below Lower Limit of Quantification (0.5 ng/mL)) | BLQ (Below Lower Limit of Quantification (0.5 ng/mL)) | BLQ (Below Lower Limit of Quantification (0.5 ng/mL))
COCCOC(=O)N(C)C(C)C(=O)c1ccc2c(c1)OCO2 (stereo not drawn) [PE, 2-Methoxyethyl N-[2-(1,3-benzodioxol-5-yl)-1-methyl-2-oxo-ethyl]-N-methyl-carbamate] | BLQ (Below Lower Limit of Quantification (0.5 ng/mL)) | BLQ (Below Lower Limit of Quantification (0.5 ng/mL)) | BLQ (Below Lower Limit of Quantification (0.5 ng/mL)) | BLQ (Below Lower Limit of Quantification (0.5 ng/mL)) | BLQ (Below Lower Limit of Quantification (0.5 ng/mL)) | BLQ (Below Lower Limit of Quantification (0.5 ng/mL)) | BLQ (Below Lower Limit of Quantification (0.5 ng/mL)) | BLQ (Below Lower Limit of Quantification (0.5 ng/mL)) | BLQ (Below Lower Limit of Quantification (0.5 ng/mL)) | BLQ (Below Lower Limit of Quantification (0.5 ng/mL)) | BLQ (Below Lower Limit of Quantification (0.5 ng/mL)) | BLQ (Below Lower Limit of Quantification (0.5 ng/mL))
